According to patent US20150320770A1, “NOVEL COMPOSITIONS AND METHODS FOR TREATING PROSTATE CANCER” (Tokai Pharmaceuticals, Inc., priority 2011, published 2015):

Assay: API solubility assessment in common solvents
Format: physicochemical
Procedure: The solubility of the API was assessed in several common solvents systems to ensure obtaining the maximum API concentration for the spray drying process. […] Subsequently this binary solvent mixture was changed to the 2:1, methanol:acetone mixture due to long secondary drying times observed with the 2:1, methanol:THF system.

## C[C@]12CC[C@H](O)CC1=CCC1C2CC[C@]2(C)C(n3cnc4ccccc43)=CCC12 (stereo partly drawn) [Compound (1), 3-β-Hydroxy17-(1H-benzimidazol-1-yl)androsta-5,16-diene]
2:1 Acetone:Methanol
  API Solubility (%): 4.16%
2:1 Methanol:Acetone
  API Solubility (%): 7.28%
2:1 Methanol:Tetrahydrofuran
  API Solubility (%): 16.64%
Acetone
  API Solubility (%): 1.04%
Ethanol
  API Solubility (%): 4.68%
Ethyl Acetate
  API Solubility (%): 0%
Methanol
  API Solubility (%): 4.16%
Tetrahydrofuran
  API Solubility (%): 7.28%
